The text below walks through data of patent US20070065366A1, “Pharmaceutical formulations comprising a long-acting beta2-agonist for administration by nebulisation” (Chiesi Farmaceutici S.p.A., priority 2005, published 2007).

Data set [1] in a line: First stability study of CHF 4226 solutions, pH 3.0 to 6.0 adjusted with different agents (HPLC). The format is physicochemical. The following applies: for stability (total impurities/degradation products): compared with not stable, higher than 5% after 1 month accelerated. How it is done:
Stability studies in different conditions of pH were carried out.
The amount of the main degradation products and the total impurities and degradation products of CHF 4226 were determined by HPLC.
Total impurities and degradation products comprise the starting impurities present in the drug, the main degradation products and other minor degradation products forming during storage.
In a first study, the effect of the pH in a rather broad range comprised between 3.0 and 6.0 adjusted with different kind of agents was investigated.
The different formulations were stored under long term (25° C., 60% R.H.) and accelerated (40° C., 75% R.H.) conditions for three months.

The nature of data set [2]: Stability of CHF 4226 in aqueous solution, pH 4.0 to 5.5, buffers comprising citric acid at different concentrations (HPLC). The format is physicochemical. The following applies: pH interval between 4.0 and 5.0, 40° C., 75% R.H. How it is done:
The chemical stability of CHF 4226 was then investigated in the pH interval comprised from 4.0 to 5.5 adjusted with buffers comprising citric acid at different concentrations.
The different formulations were stored under accelerated conditions (40° C., 75% R.H.) for at least four months.
Various liquid, propellant-free formulations comprising 0.001% w/v CHF 4226 were prepared according the procedure described in the Example 1 except that sodium chloride was not added in order to better appreciate the effect of the buffer concentration on the chemical stability.
The pH was adjusted in the interval comprised between 4.0 and 5.5 with buffers consisting of different relative percentages of the citric acid/sodium citrate couple or the citric acid/dibasic sodium phosphate couple. Each formulation was distributed in 20 ml glass vials.
The stability of the formulations was evaluated under accelerated conditions (40° C., 75% R.H.) for at least four months.
The impurities/degradation products of CHF 4226 were determined by HPLC using the experimental conditions reported in the Example 2.

The conditions of data set [3]: cited from earlier work.

For `COc1ccc(C[C@@H](C)NC[C@H](O)c2ccc(O)c3[nH]c(=O)ccc23)cc1` [CHF 4226, 8-hydroxy-5-[(1R)-1-hydroxy-2-[[(1R)-2-(4-methoxyphenyl)-1-methylethyl]amino]ethyl]-2(1H)-quinolinone], in data set [1] (pH 4.5±0.1, citrate buffer about 19 mM, compared with other pH/agents, 25° C./60% R.H. and 40° C./75% R.H., three months), the “chemical stability in aqueous solution” value was “chemically more stable”. The “stability (total impurities/degradation products)” value in data set [1] (phosphoric acid, pH 3.0) was “analogous behavior”; in data set [1] (phosphoric acid/phosphate buffer, pH 6.0) it was “analogous behavior”. Moreover, in data set [2], the chemical stability entry is recorded as “improved”.

On to `CCC(NC(C)C)C(O)c1ccc(O)c2[nH]c(=O)ccc12` (stereo not shown) [procaterol], for which the stability in solution result in data set [3] (pH 4.0 to 6.0, acetate or acetate/phosphate buffer, protected from air) was “more stable at more acidic pHs”. Further, the “effect of ferric ions on the auto-oxidation rate” value in data set [3] (presence of ferric ions, except the solution at pH 6.0 (acetate and phosphate buffer)) is “increased the auto-oxidation rate”. Also, the “pH at which the lowest degradation rate was obtained” value in data set [3] (solutions at pH 4.0, 4.5, 5.0, 5.5 and 6.0) is reported as 4.0.
